From ChEMBL document CHEMBL2040827, “Quinolizidinone carboxylic acids as CNS penetrant, selective m1 allosteric muscarinic receptor modulators” (ACS Med Chem Lett, 2010)
Active and inactive are the calls of the source. No cut-off for these calls is given here.

What was measured:
[1] = molecular target: T1, Muscarinic acetylcholine receptor M1 (Homo sapiens) (UniProt P11229); test: Positive allosteric modulation of human muscarinic M1 receptor expressed in CHO-NFAT cells assessed as potentiation of acetylcholine-induced calcium flux after 1 hr by FLIPR assay; assay type: functional, cell-based
T1 sequence (whole entry): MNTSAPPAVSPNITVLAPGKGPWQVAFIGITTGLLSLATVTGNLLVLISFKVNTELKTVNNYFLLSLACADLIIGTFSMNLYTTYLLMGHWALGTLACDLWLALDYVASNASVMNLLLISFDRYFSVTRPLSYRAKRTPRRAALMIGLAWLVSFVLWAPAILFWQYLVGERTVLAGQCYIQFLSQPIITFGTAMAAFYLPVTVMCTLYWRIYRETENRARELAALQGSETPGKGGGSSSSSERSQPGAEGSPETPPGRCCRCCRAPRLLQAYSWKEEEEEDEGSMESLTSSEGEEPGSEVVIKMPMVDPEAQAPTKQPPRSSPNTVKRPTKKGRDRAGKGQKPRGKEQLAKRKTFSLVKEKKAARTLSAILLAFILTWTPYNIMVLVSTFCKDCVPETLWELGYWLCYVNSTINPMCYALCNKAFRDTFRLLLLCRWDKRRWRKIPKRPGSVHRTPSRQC

[2] = molecular target: T1, Muscarinic acetylcholine receptor M1 (Homo sapiens); test: Positive allosteric modulation of human muscarinic M1 receptor expressed in CHO-NFAT cells assessed as potentiation of acetylcholine-induced calcium flux after 1 hr by FLIPR assay relative to control; assay type: functional, cell-based; design: concentration or dose not given beside the values
[3] = (§1) Protein binding in rat plasma; assay type: ADME, cell-free; conditions: read-out: PPB (converted)
[4] = (§2) Protein binding in human plasma; assay type: ADME, cell-free; conditions: read-out: PPB (converted)
P-glycoprotein = test: Passive permeability of the compound assessed as P-glycoprotein-mediated drug transport; assay type: ADME; conditions: not told
[5] = molecular target: MDR1 (P-glycoprotein, ABCB1) (Homo sapiens, UniProt P08183); test: Efflux ratio of the compound assessed as ratio of human MDR1-mediated permeability from basolateral to apical over apical to basolateral side of drug transport; assay type: ADME; conditions: not told
MDR1 (P-glycoprotein, ABCB1), sequence (P08183 whole entry): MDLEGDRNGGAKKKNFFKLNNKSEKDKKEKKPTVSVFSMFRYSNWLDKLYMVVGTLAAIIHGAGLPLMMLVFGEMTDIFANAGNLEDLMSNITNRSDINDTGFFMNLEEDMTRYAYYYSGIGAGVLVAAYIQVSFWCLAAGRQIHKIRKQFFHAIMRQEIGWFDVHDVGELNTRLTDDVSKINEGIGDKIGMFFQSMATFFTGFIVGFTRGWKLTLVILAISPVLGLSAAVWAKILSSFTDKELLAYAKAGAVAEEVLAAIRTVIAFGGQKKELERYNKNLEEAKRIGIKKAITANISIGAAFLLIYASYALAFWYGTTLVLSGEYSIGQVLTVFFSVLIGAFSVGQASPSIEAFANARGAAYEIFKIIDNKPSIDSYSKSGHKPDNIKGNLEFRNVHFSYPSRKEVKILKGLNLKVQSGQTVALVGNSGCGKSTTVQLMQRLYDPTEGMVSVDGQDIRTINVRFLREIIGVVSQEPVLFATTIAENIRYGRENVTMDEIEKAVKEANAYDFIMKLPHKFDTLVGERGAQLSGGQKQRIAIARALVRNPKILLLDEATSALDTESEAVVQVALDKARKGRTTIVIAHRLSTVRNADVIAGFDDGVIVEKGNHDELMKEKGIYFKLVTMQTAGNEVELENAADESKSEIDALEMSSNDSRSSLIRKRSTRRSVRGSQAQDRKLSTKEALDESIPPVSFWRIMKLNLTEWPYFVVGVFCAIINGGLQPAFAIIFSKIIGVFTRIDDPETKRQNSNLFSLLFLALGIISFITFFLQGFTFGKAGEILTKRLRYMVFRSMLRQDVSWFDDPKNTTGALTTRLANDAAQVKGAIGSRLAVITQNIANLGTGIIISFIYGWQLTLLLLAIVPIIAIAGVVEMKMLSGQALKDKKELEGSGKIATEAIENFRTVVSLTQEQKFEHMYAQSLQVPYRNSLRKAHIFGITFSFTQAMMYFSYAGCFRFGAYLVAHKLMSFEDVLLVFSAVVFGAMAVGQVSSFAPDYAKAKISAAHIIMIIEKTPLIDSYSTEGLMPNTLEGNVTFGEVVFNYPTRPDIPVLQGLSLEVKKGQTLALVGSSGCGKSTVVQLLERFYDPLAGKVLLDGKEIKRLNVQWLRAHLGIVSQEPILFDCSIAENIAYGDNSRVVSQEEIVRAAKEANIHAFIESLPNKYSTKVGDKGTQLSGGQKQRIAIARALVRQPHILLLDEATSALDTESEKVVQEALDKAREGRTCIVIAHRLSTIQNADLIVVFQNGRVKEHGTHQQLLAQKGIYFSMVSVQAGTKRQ

[6] = molecular target: MDR1a (multidrug resistance protein 1a) (Rattus norvegicus, UniProt Q6PSM0); test: Efflux ratio of the compound assessed as ratio of rat MDR1a-mediated permeability from basolateral to apical over apical to basolateral side of drug transport; assay type: ADME; conditions: not told
MDR1a (multidrug resistance protein 1a), sequence (Q6PSM0 whole entry): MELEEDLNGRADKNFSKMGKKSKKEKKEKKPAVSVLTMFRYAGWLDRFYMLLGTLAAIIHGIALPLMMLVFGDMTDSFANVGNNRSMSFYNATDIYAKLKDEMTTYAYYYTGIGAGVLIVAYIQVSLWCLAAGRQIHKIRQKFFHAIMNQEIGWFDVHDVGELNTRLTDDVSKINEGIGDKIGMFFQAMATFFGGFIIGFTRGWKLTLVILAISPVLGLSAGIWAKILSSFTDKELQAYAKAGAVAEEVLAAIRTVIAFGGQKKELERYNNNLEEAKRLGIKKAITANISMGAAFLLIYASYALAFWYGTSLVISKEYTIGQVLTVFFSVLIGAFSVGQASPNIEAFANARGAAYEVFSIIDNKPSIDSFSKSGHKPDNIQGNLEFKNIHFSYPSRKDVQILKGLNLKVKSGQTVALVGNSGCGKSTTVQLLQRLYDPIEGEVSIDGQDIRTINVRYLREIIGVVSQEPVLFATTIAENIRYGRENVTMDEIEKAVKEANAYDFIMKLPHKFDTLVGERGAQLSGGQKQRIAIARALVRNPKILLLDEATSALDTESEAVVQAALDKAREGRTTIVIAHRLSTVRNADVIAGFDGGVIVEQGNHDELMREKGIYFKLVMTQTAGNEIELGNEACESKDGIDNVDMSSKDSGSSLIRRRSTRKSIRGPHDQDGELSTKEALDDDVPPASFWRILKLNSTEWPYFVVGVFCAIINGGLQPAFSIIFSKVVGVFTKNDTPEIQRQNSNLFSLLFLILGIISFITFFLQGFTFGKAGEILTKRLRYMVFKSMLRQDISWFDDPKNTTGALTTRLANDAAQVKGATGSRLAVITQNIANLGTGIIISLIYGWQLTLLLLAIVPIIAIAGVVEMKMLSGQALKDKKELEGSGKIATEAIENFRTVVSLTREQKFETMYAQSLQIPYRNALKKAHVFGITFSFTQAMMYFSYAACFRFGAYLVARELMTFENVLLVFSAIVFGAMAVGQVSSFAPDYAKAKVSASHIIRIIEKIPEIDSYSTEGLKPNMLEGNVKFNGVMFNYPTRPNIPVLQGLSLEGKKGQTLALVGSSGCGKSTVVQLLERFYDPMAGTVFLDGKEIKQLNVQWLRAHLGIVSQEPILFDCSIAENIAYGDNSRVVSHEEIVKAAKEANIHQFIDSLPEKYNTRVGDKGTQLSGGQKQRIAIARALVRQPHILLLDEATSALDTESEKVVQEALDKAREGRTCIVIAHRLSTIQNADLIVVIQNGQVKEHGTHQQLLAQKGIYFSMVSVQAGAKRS

Plasma [7] = test: Plasma concentration in Sprague-Dawley rat at 10 mg/kg, po; assay type: ADME, organism-based; design: dose 10 mg/kg, route oral; conditions: in vivo
Brain = test: Drug uptake in Sprague-Dawley rat brain at 10 mg/kg, po; assay type: ADME, organism-based; design: dose 10 mg/kg, route oral; conditions: in vivo, read-out: Drug uptake
[8] = Ratio of drug level in brain to plasma in Sprague-Dawley rat at 10 mg/kg, po; assay type: ADME, organism-based; design: dose 10 mg/kg, route oral; conditions: read-out: BPR
Cerebrospinal fluid = test: Drug uptake in Sprague-Dawley rat cerebrospinal fluid at 10 mg/kg, po; assay type: ADME, organism-based; design: dose 10 mg/kg, route oral; conditions: in vivo, read-out: Drug uptake
[9] = Ratio of drug uptake in Sprague-Dawley rat cerebrospinal fluid at 10 mg/kg, po to protein binding in rat plasma; assay type: ADME, organism-based, CSF/Plasma; design: dose 10 mg/kg, route oral; conditions: in vivo
[10] = molecular target: Voltage-gated inwardly rectifying potassium channel KCNH2 (Homo sapiens, UniProt Q12809); test: Inhibition of human ERG
Voltage-gated inwardly rectifying potassium channel KCNH2, sequence (Q12809 whole entry): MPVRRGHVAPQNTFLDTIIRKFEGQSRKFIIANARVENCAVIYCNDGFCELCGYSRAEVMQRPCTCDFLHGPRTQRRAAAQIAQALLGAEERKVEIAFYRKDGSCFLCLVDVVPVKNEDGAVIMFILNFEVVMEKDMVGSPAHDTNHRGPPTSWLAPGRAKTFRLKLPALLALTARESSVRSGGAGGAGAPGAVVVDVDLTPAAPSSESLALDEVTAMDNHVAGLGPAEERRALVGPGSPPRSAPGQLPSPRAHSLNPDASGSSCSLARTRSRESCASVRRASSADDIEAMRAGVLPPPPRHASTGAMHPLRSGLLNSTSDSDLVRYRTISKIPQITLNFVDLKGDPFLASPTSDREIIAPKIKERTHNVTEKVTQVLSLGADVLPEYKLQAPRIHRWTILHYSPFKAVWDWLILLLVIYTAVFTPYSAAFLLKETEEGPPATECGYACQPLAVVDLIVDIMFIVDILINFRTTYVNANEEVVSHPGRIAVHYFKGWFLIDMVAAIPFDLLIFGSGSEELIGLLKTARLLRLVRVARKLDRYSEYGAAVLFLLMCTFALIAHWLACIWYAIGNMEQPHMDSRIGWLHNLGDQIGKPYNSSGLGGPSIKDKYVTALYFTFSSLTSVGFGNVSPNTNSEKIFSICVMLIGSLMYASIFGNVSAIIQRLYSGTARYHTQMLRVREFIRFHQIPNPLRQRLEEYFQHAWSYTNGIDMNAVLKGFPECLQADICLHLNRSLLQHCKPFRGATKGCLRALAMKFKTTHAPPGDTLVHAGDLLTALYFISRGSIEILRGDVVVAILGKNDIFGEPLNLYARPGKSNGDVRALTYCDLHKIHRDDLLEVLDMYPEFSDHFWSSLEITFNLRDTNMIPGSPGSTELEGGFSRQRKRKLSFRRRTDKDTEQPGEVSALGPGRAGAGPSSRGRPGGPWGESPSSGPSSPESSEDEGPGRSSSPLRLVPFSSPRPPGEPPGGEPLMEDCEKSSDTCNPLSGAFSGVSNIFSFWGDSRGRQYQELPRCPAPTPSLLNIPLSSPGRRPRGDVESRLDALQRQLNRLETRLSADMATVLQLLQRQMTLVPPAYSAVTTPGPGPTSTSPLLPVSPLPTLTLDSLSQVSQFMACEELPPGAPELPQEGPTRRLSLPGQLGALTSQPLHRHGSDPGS

[11] = molecular target: T1, Muscarinic acetylcholine receptor M1 (Homo sapiens); test: Agonist activity at human muscarinic M1 receptor expressed in CHO-NFAT cells assessed as effect on calcium flux up to 10 uM after 1 hr by FLIPR assay; assay type: functional, cell-based
[12] = molecular target: T2, Muscarinic acetylcholine receptor M2 (Homo sapiens) (UniProt P08172); test: Agonist activity at human muscarinic M2 receptor expressed in CHO-NFAT cells assessed as potentiation of acetylcholine-induced calcium flux at up to 100 uM after 1 hr by FLIPR assay; assay type: functional, cell-based
T2 sequence (whole entry): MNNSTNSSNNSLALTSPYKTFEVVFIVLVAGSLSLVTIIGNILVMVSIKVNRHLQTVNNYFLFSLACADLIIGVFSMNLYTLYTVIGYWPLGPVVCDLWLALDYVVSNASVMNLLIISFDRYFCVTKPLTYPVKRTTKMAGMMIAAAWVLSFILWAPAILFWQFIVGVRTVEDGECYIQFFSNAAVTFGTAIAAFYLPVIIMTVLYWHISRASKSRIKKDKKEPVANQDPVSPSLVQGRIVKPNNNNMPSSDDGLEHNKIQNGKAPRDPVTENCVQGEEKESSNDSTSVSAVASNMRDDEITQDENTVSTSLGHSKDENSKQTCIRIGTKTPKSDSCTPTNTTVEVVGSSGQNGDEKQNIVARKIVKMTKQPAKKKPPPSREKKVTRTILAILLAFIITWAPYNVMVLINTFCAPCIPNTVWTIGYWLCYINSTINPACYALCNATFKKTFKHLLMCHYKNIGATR

[13] = molecular target: Muscarinic acetylcholine receptor M3 (Homo sapiens) (UniProt P20309); test: Agonist activity at human muscarinic M3 receptor expressed in CHO-NFAT cells assessed as potentiation of acetylcholine-induced calcium flux at up to 100 uM after 1 hr by FLIPR assay; assay type: functional, cell-based
Muscarinic acetylcholine receptor M3 (Homo sapiens), sequence (P20309 whole entry, looked up): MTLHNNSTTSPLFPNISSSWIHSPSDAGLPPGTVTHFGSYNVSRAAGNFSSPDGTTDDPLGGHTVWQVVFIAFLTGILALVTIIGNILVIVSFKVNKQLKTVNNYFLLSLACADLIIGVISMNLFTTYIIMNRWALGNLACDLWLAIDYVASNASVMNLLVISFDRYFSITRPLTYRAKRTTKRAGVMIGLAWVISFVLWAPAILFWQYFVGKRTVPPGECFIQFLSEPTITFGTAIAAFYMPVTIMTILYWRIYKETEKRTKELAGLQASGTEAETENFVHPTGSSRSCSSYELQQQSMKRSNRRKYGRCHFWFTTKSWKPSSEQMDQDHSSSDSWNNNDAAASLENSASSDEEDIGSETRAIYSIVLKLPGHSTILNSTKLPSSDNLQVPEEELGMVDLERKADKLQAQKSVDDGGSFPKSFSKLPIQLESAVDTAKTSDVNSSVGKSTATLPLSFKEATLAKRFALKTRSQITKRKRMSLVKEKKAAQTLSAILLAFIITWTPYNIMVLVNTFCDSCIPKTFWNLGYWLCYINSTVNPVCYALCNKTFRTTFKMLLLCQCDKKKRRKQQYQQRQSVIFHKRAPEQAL

[14] = molecular target: T3, Muscarinic acetylcholine receptor M4 (Homo sapiens) (UniProt P08173); test: Agonist activity at human muscarinic M4 receptor expressed in CHO-NFAT cells assessed as potentiation of acetylcholine-induced calcium flux at up to 100 uM after 1 hr by FLIPR assay; assay type: functional, cell-based
T3 sequence (whole entry): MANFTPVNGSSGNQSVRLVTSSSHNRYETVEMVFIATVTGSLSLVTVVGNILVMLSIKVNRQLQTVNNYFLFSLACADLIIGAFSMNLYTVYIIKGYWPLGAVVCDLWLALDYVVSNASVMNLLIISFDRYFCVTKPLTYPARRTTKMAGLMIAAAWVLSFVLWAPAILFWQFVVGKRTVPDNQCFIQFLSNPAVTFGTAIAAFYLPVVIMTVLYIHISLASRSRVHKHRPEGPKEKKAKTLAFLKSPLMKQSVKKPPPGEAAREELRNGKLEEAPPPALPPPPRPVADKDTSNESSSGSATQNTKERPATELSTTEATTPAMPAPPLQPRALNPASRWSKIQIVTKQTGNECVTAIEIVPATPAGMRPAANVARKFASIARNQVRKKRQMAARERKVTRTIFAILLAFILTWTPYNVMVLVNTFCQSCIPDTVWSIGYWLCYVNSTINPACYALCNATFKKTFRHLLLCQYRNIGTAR

[15] = molecular target: T2, Muscarinic acetylcholine receptor M2 (Homo sapiens); test: Antagonist activity at human muscarinic M2 receptor expressed in CHO-NFAT cells assessed as inhibition of acetylcholine-induced calcium flux at up to 100 uM after 1 hr by FLIPR assay; assay type: functional, cell-based
[16] = molecular target: Muscarinic acetylcholine receptor M3 (Homo sapiens) (UniProt P20309); test: Antagonist activity at human muscarinic M3 receptor expressed in CHO-NFAT cells assessed as inhibition of acetylcholine-induced calcium flux at up to 100 uM after 1 hr by FLIPR assay; assay type: functional, cell-based
[17] = molecular target: T3, Muscarinic acetylcholine receptor M4 (Homo sapiens); test: Antagonist activity at human muscarinic M4 receptor expressed in CHO-NFAT cells assessed as inhibition of acetylcholine-induced calcium flux at up to 100 uM after 1 hr by FLIPR assay; assay type: functional, cell-based
Mus musculus [18] = test: Inhibition of scopolamine-induced memory deficit in ip dosed contextual fear conditioning memory model of mouse by measuring freezing behavior after 24 hrs […] relative to control; assay type: functional, organism-based
Mus musculus [19] = test: Inhibition of scopolamine-induced memory deficit in contextual fear conditioning memory model of mouse by measuring freezing behavior at 30 mg/kg, ip at 7.4 uM of plasma concentration after 24 hrs […] relative to control; assay type: functional, organism-based; design: dose 30 mg/kg
Mus musculus [20] = test: Inhibition of scopolamine-induced memory deficit in ip dosed contextual fear conditioning memory model of mouse by measuring freezing behavior at 33 uM of plasma concentration after 24 hrs […] relative to control; assay type: functional, organism-based
[21] = Oral bioavailability in Sprague-Dawley rat at 10 mg/kg; assay type: ADME, organism-based; conditions: in vivo
[22] = Half life in Sprague-Dawley rat at 10 mg/kg, po and 2 mg/kg, iv; assay type: ADME, organism-based; conditions: in vivo
[23] = Clearance in Sprague-Dawley rat at 10 mg/kg, po and 2 mg/kg, iv; assay type: ADME, organism-based; conditions: in vivo
[24] = Oral bioavailability in dog at 10 mg/kg; assay type: ADME, organism-based, Canis lupus familiaris; conditions: in vivo
[25] = Half life in dog at 10 mg/kg, po and 2 mg/kg, iv; assay type: ADME, organism-based, Canis lupus familiaris; conditions: in vivo
[26] = Clearance in dog at 10 mg/kg, po and 2 mg/kg, iv; assay type: ADME, organism-based, Canis lupus familiaris; conditions: in vivo
Plasma [27] = test: as §1; assay type: ADME, cell-free
Plasma [28] = test: as §2; assay type: ADME, cell-free
[29] = Fraction unbound in rat plasma; assay type: ADME, cell-free
[30] = Fraction unbound in human plasma; assay type: ADME, cell-free

O=C(O)c1cc(CN2CCC(c3ccccc3)C2)c2ccccn2c1=O (stereo unspecified)
Activity [1]: > 100 µM

O=C(O)c1cc(C(O)c2ccccc2)c2ccccn2c1=O (stereo unspecified)
Activity [1]: > 100 µM

N#Cc1ccc(N2CCN(Cc3cc(C(=O)O)c(=O)n4ccccc34)CC2)cc1
Activity [1]: 0.52 µM | Activity [2]: 94% | fraction unbound [3]: 0.062 | fraction unbound [4]: 0.134 | Papp (P-glycoprotein): 22 ×10⁻⁶ cm/s | efflux ratio [5]: 0.7 | efflux ratio [6]: 1.9 | concentration (Plasma [7]): 1500 nM | concentration (Brain): 248 nM | Kp [8]: 0.17 | concentration (Cerebrospinal fluid): 85 nM | Ratio [9]: 0.42 | IC50 [10]: 7400 nM | Activity [11]: inactive | Activity [12]: inactive | Activity [13]: inactive | Activity [14]: inactive | inhibition [15]: inactive | inhibition [16]: inactive | inhibition [17]: inactive | inhibition (Mus musculus [18]): Dose-dependent effect | inhibition (Mus musculus [19]): Active | inhibition (Mus musculus [20]): Active | bioavailability [21]: 23% | half-life [22]: 6.4 h | clearance [23]: 10.8 mL/min/kg | bioavailability [24]: 33% | half-life [25]: 2.5 h | clearance [26]: 13 mL/min/kg

O=C(O)c1cc(Cc2ccc(Cl)cc2)c2ccccn2c1=O
Activity [1]: 0.2 µM | Activity [2]: 93%

O=C(O)c1cc(Cc2ccccc2)c2ccccn2c1=O
Activity [1]: 0.92 µM | Activity [2]: 81%

O=C(O)c1cc(C(=O)c2ccccc2)c2ccccn2c1=O
Activity [1]: > 100 µM

O=C(O)c1cc(Cc2ccc(-c3ccccc3)cc2)c2ccccn2c1=O
Activity [1]: 0.11 µM | Activity [2]: 86% | PPB (Plasma [27]): ND(Insoluble) | PPB (Plasma [28]): ND(Insoluble)

O=C(O)c1cc(CN2CCN(c3ccncc3)CC2)c2ccccn2c1=O
Activity [1]: 1.5 µM | Activity [2]: 86% | Papp (P-glycoprotein): < 5 ×10⁻⁶ cm/s | concentration (Plasma [7]): 2070 nM | concentration (Brain): 59 nM | Kp [8]: 0.03 | concentration (Cerebrospinal fluid): 16 nM | Ratio [9]: 0.02

O=C(O)c1cc(CN2CCCCC2)c2ccccn2c1=O
Activity [1]: 7.6 µM | Activity [2]: 87%

O=C(O)c1cc(CN2CCN(c3ccccc3)CC2)c2ccccn2c1=O
Activity [1]: 0.93 µM | Activity [2]: 52% | fraction unbound [3]: 0.369 | fraction unbound [4]: 0.26 | fraction unbound [29]: > 0.25 | fraction unbound [30]: > 0.25

O=C(O)c1cc(CN2CCC(c3ccccc3)CC2)c2ccccn2c1=O
Activity [1]: 1.3 µM | Activity [2]: 58%

O=C(O)c1cc(CN2CCN(c3ccccc3)C(=O)C2)c2ccccn2c1=O
Activity [1]: 1.1 µM | Activity [2]: 89% | fraction unbound [3]: 0.62 | fraction unbound [4]: 0.479

O=C(O)c1cc(Cc2ccc(-c3cccnc3)cc2)c2ccccn2c1=O
Activity [1]: 0.075 µM | Activity [2]: 74% | fraction unbound [3]: 0.015 | fraction unbound [4]: 0.003

O=C(O)c1cc(CN2CCN(c3ccc(C(F)(F)F)cc3)CC2)c2ccccn2c1=O
Activity [1]: 0.27 µM | Activity [2]: 67% | fraction unbound [3]: 0.034 | fraction unbound [4]: 0.049 | Papp (P-glycoprotein): 32 ×10⁻⁶ cm/s | efflux ratio [5]: 1.4 | efflux ratio [6]: 1.3 | concentration (Plasma [7]): 1140 nM | concentration (Brain): 3080 nM | Kp [8]: 2.7 | concentration (Cerebrospinal fluid): 14 nM | Ratio [9]: 0.25 | IC50 [10]: 100 nM

COc1ccc(Cn2cc(C(=O)O)c(=O)c3ccccc32)cc1
inhibition (Mus musculus [20]): inactive

O=C(O)c1cc(Cc2ccc(-c3ccccn3)cc2)c2ccccn2c1=O
Activity [1]: 0.061 µM | Activity [2]: 78%

O=C(O)c1cc(CN2CCN(c3ccc(Br)cc3)CC2)c2ccccn2c1=O
Activity [1]: 0.13 µM | Activity [2]: 77% | fraction unbound [3]: 0.039 | fraction unbound [4]: 0.065 | fraction unbound [29]: 0.04 | Papp (P-glycoprotein): 16 ×10⁻⁶ cm/s | efflux ratio [5]: 0.1 | efflux ratio [6]: 0.6 | concentration (Plasma [7]): 3650 nM | concentration (Brain): 4580 nM | Kp [8]: 1.3 | concentration (Cerebrospinal fluid): 70 nM | Ratio [9]: 0.32 | IC50 [10]: 2100 nM
